# Measured values reported in US11084826B2, “RSV antiviral pyrazolo- and triazolo-pyrimidine compounds” (Janssen Sciences Ireland Unlimited Company, priority 2015, dated 2021).
# How the values were obtained:
# rgRSV224 virus = assay: Antiviral activity: inhibition of rgRSV224 (GFP-expressing RSV) replication in HeLa cells, GFP expression read-out; assay type: cell-based, respiratory syncytial virus (RSV); conditions: human respiratory syncytial virus, HeLa, read-out: RSV HELA pEC50, rgRSV224 virus (MOI=1) in HeLa cells, GFP read-out (converted)
# Protocol: (§1) Black 384-well clear-bottom microtiter plates (Corning, Amsterdam, The Netherlands) were filled via acoustic drop ejection using the echo liquid handler (Labcyte, Sunnyvale, Calif.). 200 nL of compound stock solutions (100% DMSO) were transferred to the assay plates. 9 serial 4-fold dilutions of compound were made, creating per quadrant the same compound concentration. The assay was initiated by adding 10 μL of culture medium to each well (RPMI medium without phenol red, 10% FBS-heat inactivated, 0.04% gentamycin (50 mg/mL). All addition steps are done by using a multidrop dispenser (Thermo Scientific, Erembodegem, Belgium). Next, rgRSV224 virus (MOI=1) diluted in culture medium was added to the plates. rgRSV224 virus is an engineered virus that includes an additional GFP gene (Hallak LK, Spillmann D, Collins PL, Peeples Me. Glycosaminoglycan sulfation requirements for respiratory syncytial virus infection; Journal of virology (2000), 74(22), 10508-13) and was in-licensed from the NIH (Bethesda, Md., USA). Finally, 20 μL of a HeLa cell suspension (3,000 cells/well) were plated. Medium, virus- and mock-infected controls were included in each test. The wells contain 0.05% DMSO per volume. Cells were incubated at 37° C. in a 5% CO2 atmosphere. Three days post-virus exposure, viral replication was quantified by measuring GFP expression in the cells by an in house developed MSM laser microscope (Tibotec, Beerse, Belgium). The EC50 was defined as the 50% inhibitory concentration for GFP expression. In parallel, compounds were incubated for three days in a set of white 384-well microtiter plates (Corning) and the cytotoxicity of compounds in HeLa cells was determined by measuring the ATP content of the cells using the ATPlite kit (Perkin Elmer, Zaventem, Belgium) according to the manufacturer's instructions. The CC50 was defined as the 50% concentration for cytotoxicity.
# [1] = Cytotoxicity in HeLa cells, ATP content measured with the ATPlite kit; assay type: cell-based; conditions: human, TOX HELA pCC50
# Protocol: as §1
SMILES,EC50 (rgRSV224 virus),CC50 at 3 days [1]
CCc1cc(C(=O)N2CCCCC[C@H]2C)nc2cc(-c3ccc(C4[C@@H](C(=O)O)C4(F)F)cc3F)nn12 (mixture of isomers) [Compound O18],191 nM,53700 nM
CCc1cc(C(=O)N2CCCC3(CC=CC3)C2C)nc2cc(-c3ccc(-c4ccc(C(=O)O)cn4)cc3F)nn12 (racemic) [Compound F50],324 nM,60300 nM
CCc1cc(C(=O)N2CCc3ccsc3C2C)nc2cc(-c3ccc(-c4ccc(C(=O)O)cn4)cc3F)nn12 (racemic) [Compound F55],120 nM,> 100000 nM
CCc1cc(C(=O)N2CCn3c(Cl)ccc3C2C)nc2cc(-c3ccc(-c4ccc(C(=O)O)cn4)cc3F)nn12 (racemic) [Compound F56],155 nM,> 100000 nM
CCc1cc(C(=O)N2CCc3sc(C)cc3C2C)nc2cc(-c3ccc(-c4ccc(C(=O)O)cn4)cc3F)nn12 (racemic) [Compound F58],170 nM,26300 nM
CCc1cc(C(=O)N2CCCn3cccc3C2C)nc2cc(-c3ccc(-c4ccc(C(=O)O)cn4)cc3F)nn12 (racemic) [Compound F59],191 nM,> 25100 nM
CCc1cc(C(=O)N2CCn3cccc3C2C)nc2cc(-c3ccc4c(c3F)OCC(C(=O)O)=C4)nn12 (racemic) [Compound F61],45.7 nM,> 100000 nM
C[C@@H]1CCCCCN1C(=O)c1cc(C2(C)COC2)n2nc(-c3ccc4c(c3F)OCC(C(=O)O)=C4)cc2n1 (racemic) [Compound F62],57.5 nM,> 25100 nM
CC1c2ccsc2CCN1C(=O)c1cc(C2(C)CC2)n2nc(-c3ccc4c(c3F)OCC(C(=O)O)=C4)cc2n1 (racemic) [Compound F67],39.8 nM,67600 nM
C[C@@H]1c2ccccc2CCN1C(=O)c1cc(C2(C)CC2)n2nc(-c3ccc(C4C[C@H]4C(=O)O)cc3F)cc2n1 (mixture of isomers) [Compound O8],11.7 nM,49000 nM
C[C@@H]1CCCCCN1C(=O)c1cc(C2(C)CC2)n2nc(-c3cccc([C@H]4C[C@@H]4C(=O)O)c3F)cc2n1 (racemic) [Compound O9],110 nM,89100 nM
CCCC(C)N(CC)C(=O)c1cc(CC)n2nc(-c3ccc(C4C[C@H]4C(=O)O)cc3F)cc2n1 (mixture of isomers) [Compound O13],141 nM,45700 nM
CCc1cc(C(=O)N2CCCCC[C@H]2C)nc2cc(-c3ccc(N(C)[C@H]4C[C@H](C(=O)O)C4)cc3F)nn12 (racemic) [Compound W22],45.7 nM,87100 nM
CCc1cc(C(=O)N2CCCCC[C@H]2C)nc2cc(-c3ccc(-n4cc(C(=O)O)c(C)n4)cc3F)nn12 (racemic) [Compound W25],93.3 nM,66100 nM
CCCC(C)N(CC)C(=O)c1cc(CC)n2nc(-c3ccc([C@H]4C[C@@H]4C(=O)O)cc3F)cc2n1 (relative stereo) [Compound O14],219 nM,66100 nM
CCc1cc(C(=O)N2CCn3cccc3[C@H]2C)nc2cc(-c3ccc([C@H]4C[C@@H]4C(=O)O)cc3F)nn12 (relative stereo) [Compound O19],30.9 nM,91200 nM
"CCc1cc(C(=O)N2CCCCC[C@H]2C)nc2cc(-c3ccc(C4C[C@H]4C(=O)O)cc3F)nn12 (single isomer, unassigned) [Compound O2]",58.9 nM,> 25100 nM
CCc1cc(C(=O)N2CCCCCC2C)nc2cc(C3CCCCC3)nn12 (centres unmarked) [Compound A5],4790 nM,33100 nM
CCCCC(C)N(C)C(=O)c1cc(CC)n2nc(-c3ccccc3F)cc2n1 (centres unmarked) [Compound A17],1510 nM,40700 nM
CC1CCCCCN1C(=O)c1cc(CC2CCCCC2)n2nc(-c3ccccc3F)cc2n1 (centres unmarked) [Compound A20],6310 nM,> 25100 nM
CCCCc1nc(Cl)c(-c2cc3nc(C(=O)N4CCCCCC4C)cc(CC)n3n2)[nH]1 (centres unmarked) [Compound A22],603 nM,> 25100 nM
CCc1cc(C(=O)N2CCCCCC2C)nc2cc(-c3ccc(NS(=O)(=O)C4CC4)cc3F)nn12 (centres unmarked) [Compound D2],603 nM,> 50100 nM
CCc1cc(C(=O)N2CCCCCC2C)nc2cc(-c3cc(NC(=O)C4CC4)ccc3F)nn12 (centres unmarked) [Compound E12],447 nM,60300 nM
CCc1cc(C(=O)N2CCCCCC2C)nc2cc(-c3ccc(-c4cccnc4)cc3)nn12 (centres unmarked) [Compound F2],2950 nM,38900 nM
CCc1cc(C(=O)N2CCCCCC2C)nc2cc(-c3ccc(-c4cn[nH]c4)cc3F)nn12 (centres unmarked) [Compound F6],355 nM,> 25100 nM

SMILES,EC50 (rgRSV224 virus),CC50 at 3 days [1]
CCc1cc(C(=O)N2CCCCCC2C)nc2cc(-c3ccc(-c4cnc(C)n4C)cc3F)nn12 (centres unmarked) [Compound F11],1350 nM,> 25100 nM
CCc1cc(C(=O)N2CCCCCC2C)nc2cc(-c3ccc(-c4cnn(C5CC5)c4)cc3F)nn12 (centres unmarked) [Compound F12],1380 nM,> 25100 nM
CCc1cc(C(=O)N2CCCCCC2C)nc2cc(-c3ccc(-c4cncn4C)cc3F)nn12 (centres unmarked) [Compound F13],562 nM,> 25100 nM
CCc1cc(C(=O)N2CCCCCC2C)nc2cc(-c3ccc(-c4c[nH]cn4)cc3F)nn12 (centres unmarked) [Compound F16],145 nM,> 25100 nM
CCc1cc(C(=O)N2CCCCC[C@H]2C)nc2cc(-c3ccc(-c4cnc(C(=O)O)c(F)c4)cc3F)nn12 [Compound F19],97.7 nM,36300 nM
CCc1cc(C(=O)N2CCc3ccccc3C2C)nc2cc(-c3ccc(-c4ccc(C(=O)O)nc4)cc3F)nn12 (centres unmarked) [Compound F22],35.5 nM,6920 nM
CCc1cc(C(=O)N2CCc3ccccc3[C@H]2C)nc2cc(-c3ccc(-c4ccc(C(=O)O)cn4)cc3F)nn12 [Compound F23],40.7 nM,> 25100 nM
CCc1cc(C(=O)N2CCCCC[C@H]2C)nc2cc(-c3ccc(-c4ccc(C(=O)O)nc4)cc3F)nn12 [Compound F24],69.2 nM,12600 nM
CCc1cc(C(=O)N2CCCCC[C@H]2C)nc2cc(-c3ccc(-c4ccnc(C(=O)O)c4)cc3F)nn12 [Compound F25],43.7 nM,13500 nM
C[C@@H]1CCCCCN1C(=O)c1cc(C2CCC2)n2nc(-c3ccc(-c4ccc(C(=O)O)cn4)cc3F)cc2n1 [Compound F32],28.2 nM,32400 nM
CCc1cc(C(=O)N2CCCCC[C@H]2C)nc2cc(-c3cc4ccc(C(=O)O)nc4cc3F)nn12 [Compound F33],91.2 nM,66100 nM
CCc1cc(C(=O)N2CCCCC[C@H]2C)nc2cc(-c3ccc([C@H]4CC[C@H](C(=O)O)CC4)cc3F)nn12 [Compound F37],182 nM,38000 nM
C[C@@H]1CCCCCN1C(=O)c1cc(C2CC2)n2nc(-c3ccc4c(c3F)OCC(C(=O)O)=C4)cc2n1 [Compound F38],51.3 nM,36300 nM
CCc1cc(C(=O)N2CCCCC[C@H]2C)nc2cc(-c3ccc4ccc(C(=O)O)nc4c3F)nn12 [Compound F45],43.7 nM,91200 nM
CCc1cc(C(=O)N2CCCCC[C@H]2C)nc2cc(-c3ccc(C4CC5(CC(C(=O)O)C5)C4)cc3F)nn12 (some centres unmarked) [Compound F47],245 nM,46800 nM
CCc1cc(C(=O)N2CCCCCC2C)nc2cc(-c3ccc(/C=C(\C)C(=O)O)cc3F)nn12 (centres unmarked) [Compound M13],224 nM,> 25100 nM
CNc1cc(C(=O)N2CCc3ccccc3[C@H]2C)nc2cc(-c3ccc(/C=C/C(=O)O)cc3F)nn12 [Compound M14],24 nM,15800 nM
CCc1cc(C(=O)N2CCc3ccccc3[C@H]2C)nc2cc(-c3ccc(/C=C/C(=O)O)cc3F)nn12 [Compound M15],15.1 nM,> 20400 nM
C[C@@H]1c2ccccc2CCN1C(=O)c1cc(N2CCCC2)n2nc(-c3ccc(/C=C/C(=O)O)cc3F)cc2n1 [Compound M16],13.2 nM,16600 nM
CCc1cc(C(=O)N2CCc3ccccc3C2C)nc2cc(-c3ccc(/C=C(\C)C(=O)O)cc3F)nn12 (centres unmarked) [Compound M17],63.1 nM,17400 nM
CCc1cc(C(=O)N2CCCc3ccccc3C2C)nc2cc(-c3ccc(/C=C/C(=O)O)cc3F)nn12 (centres unmarked) [Compound M18],77.6 nM,> 25100 nM
C[C@@H]1CCCCCN1C(=O)c1cc(C2CC2)n2nc(-c3cccc(/C=C/C(=O)O)c3F)cc2n1 [Compound M28],93.3 nM,17800 nM
CCc1cc(C(=O)N2CCCCC[C@H]2C)nc2cc(-c3ccc(/C=C/C(=O)O)c(OC)c3F)nn12 [Compound M32],178 nM,66100 nM
C[C@@H]1CCCCCN1C(=O)c1cc(C2(C)COC2)n2nc(-c3cccc(/C=C/C(=O)O)c3F)cc2n1 [Compound M33],102 nM,> 100000 nM
